Legend:
[1] = molecular target: T1, Cdc42 GTPase in Swiss 3T3 cells (Mus musculus, UniProt P60766); experiment: GLISA; format: cell-based; conditions: approximately 10 μM
T1 construct: endogenous in cells; host or cells: Swiss 3T3 cells
Protocol: Swiss 3T3 cells were continuously passaged at subconfluence and used to monitor the capacity of compounds to block stimulus-mediated activation of Cdc42, Rac1 or RhoA in vivo. Commercial GLISA kits customized to capture activated Cdc42, Rac1 or Rho from cell lysates were used per manufacturer's instructions (Cytoskeleton, Inc.). Cells were serum starved by sequentially removing serum over a three day period and treated with DMSO or 10 μM compound in DMSO for 20-30 min. Subsequently samples were treated with EGF (10 ng/ml for Rac1 and 100 ng/ml for Cdc42) for 2 min to activate Rac1 and Cdc42 or 5 U/ml calpeptin for 10 min to activate RhoA. DMSO treated cells were left unstimulated to determine baseline GTPase activation or stimulated without drug treatment to determine maximal GTPase activation. Cell lysates were snap frozen, active Cdc42 and Rac1 were quantified based on a PAK binding assay, active RhoA was quantified based on Rho GTP-binding protein interaction. All assays were performed in 96-well microtiter plates, Purified GTP-bound Cdc42, Rac1, or RhoA served as a standards to calculate ng active GTPase in the lysates.

[2] = molecular target: Cdc42 ACT (Cdc42Q61L) (Homo sapiens, UniProt P60953, Q61L); experiment: Bead-based flow cytometry dose response, BODIPY-FL-GTP binding; conditions: Table 6, R3 analogs; read-out: Cdc42 ACT EC50
Sequence of Cdc42 ACT (Cdc42Q61L) (P60953 whole entry Q61L): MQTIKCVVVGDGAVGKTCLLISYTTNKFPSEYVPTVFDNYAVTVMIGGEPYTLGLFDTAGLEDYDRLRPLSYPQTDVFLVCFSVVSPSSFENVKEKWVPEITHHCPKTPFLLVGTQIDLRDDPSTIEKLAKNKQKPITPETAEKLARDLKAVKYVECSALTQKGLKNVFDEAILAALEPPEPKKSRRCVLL
Protocol: (§1) Bead sets for multiplex assays were custom synthesized by Duke Scientific Corp (Fremont, Calif.), but may now be ordered from Thermo/Fisher. […] Negative controls, contained the bead mixture with fluorescent GTP, 0.5 mM unlabeled GTP as a competitor, and 1% DMSO. […] The resulting time-dependent data (one file per plate) were analyzed using IDLQuery software to determine the compound activity in each well. Gating based on forward scatter (FS) and side scatter (SS) parameters was used to identify singlet bead populations. Gating based on FL8 emission distinguishes the beads coated with different proteins, and the median fluorescence per bead population was calculated. […] Baselines were set to 100% based on measurements from the 1% DMSO containing positive controls as further described in PubChem. {PubChem #72}
(§2) Briefly, compounds were serially diluted 1:3 a total of eight times from a starting concentration of 10 mM giving a 9-point dilution series in DMSO. The final concentrations of inhibitors in the assay ranged from 10 nM to 100 μM. Dose-response analyses were examined in the presence of NP-HPS buffer containing: a) 1 mM EDTA; or b) 1 mM MgCl2. […] For assays with EDTA we used one multiplex (Rab7 wt, Rab2 wt, H-Ras wt, H-RasG12V, Cdc42 wt, and Cdc42Q61L) and 3 single-plexes (for Rac1 wt, Rac1 Q61L and GST-GFP).
(§3) GTPase activators were identified on the basis of an increase in fluorescent GTP-binding.
(§4) In experiments including magnesium, six GST-GTPases were assayed simultaneously in a single multiplex (Rac1 wt, Rac1Q61L, RhoA wt, RhoAL63, Cdc42 wt and Cdc42Q61L) and 1 nM BODIPY-FL-GTP binding was measured in the presence or absence of the serial drug dilution series. Each dose response series was run in duplicate.

[3] = molecular target: T2, Cdc42 WT (Homo sapiens, UniProt P60953); experiment: as above; conditions: Table 6, R3 analogs; for EC50: read-out: Cdc42 WT EC50; for Emax: read-out: Cdc42 WT Efficacy
T2 construct: purchased Cytoskeleton
T2 sequence (P60953 whole entry): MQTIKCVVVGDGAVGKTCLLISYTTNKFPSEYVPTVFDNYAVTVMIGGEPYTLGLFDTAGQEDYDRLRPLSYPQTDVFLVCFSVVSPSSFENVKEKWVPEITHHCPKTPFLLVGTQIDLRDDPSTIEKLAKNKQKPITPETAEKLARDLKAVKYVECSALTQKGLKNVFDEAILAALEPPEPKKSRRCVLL
Protocol: as §1, §2, §3, §4

[4] = molecular target: Cdc42 (Homo sapiens, UniProt P60953); experiment: Fluorescent-GTP binding to Cdc42 (p38 inhibitor control)
Sequence of Cdc42 (P60953 whole entry, species assumed): as the sequence (P60953 whole entry) above

T1 sequence (P60766 whole entry): as the sequence (P60953 whole entry) above

| SMILES | Inhibition of Cdc42 GTPase in GLISA [1] | EC50 [2] | EC50 [3] | Emax [3] | Fluorescent-GTP binding to Cdc42 [4] |
| --- | --- | --- | --- | --- | --- |
| Cc1ccc(C2CC(c3ccccc3)=NN2c2ccc(S(N)(=O)=O)cc2)cc1 (stereo not drawn) [CID 13927310, 4-[3-(4-methylphenyl)-5-phenyl-3,4-dihydropyrazol-2-yl]benzene sulfonamide] | significant response | 5 µM | 5 µM | 66% |  |
| Oc1ccc(-c2nc(-c3ccncc3)c(-c3ccc(F)cc3)[nH]2)cc1 [SB 202190] |  |  |  |  | did not inhibit |
| Cc1cccc(C2CC(c3ccccc3)=NN2c2ccc(S(N)(=O)=O)cc2)c1 (stereo not drawn) [CID 44143700, 4-[3-(3-methylphenyl)-5-phenyl-3,4-dihydropyrazol-2-yl]benzene sulfonamide] | significant response | 5.3 µM | 5 µM | 55% |  |

Source: US9642835B2, “Modulators of GTPase and use in relevant treatment” (STC.UNM, priority 2010, dated 2017)
